Data taken from patent EP4477653A1 (Perha Pharmaceuticals, priority 2023, dated 2024).
Like-named read-outs stand apart in the source and are kept apart here.

Target: T1, human recombinant A3AR (expressed in HEK-293 cells) (Homo sapiens, UniProt P0DMS8)
T1 construct: host or cells: HEK-293 cells
T1 sequence (P0DMS8 1-318): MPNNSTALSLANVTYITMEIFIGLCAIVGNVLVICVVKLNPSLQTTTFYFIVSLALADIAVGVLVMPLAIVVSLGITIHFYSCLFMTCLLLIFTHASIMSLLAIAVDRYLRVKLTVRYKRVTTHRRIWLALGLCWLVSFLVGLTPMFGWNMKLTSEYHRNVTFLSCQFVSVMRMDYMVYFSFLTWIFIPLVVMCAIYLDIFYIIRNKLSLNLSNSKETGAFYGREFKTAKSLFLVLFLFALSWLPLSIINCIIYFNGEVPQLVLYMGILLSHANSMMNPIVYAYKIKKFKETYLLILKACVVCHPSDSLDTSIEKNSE
Assay: Adenosine receptors antagonism assay (Eurofins), [125I]-AB-MECA radioligand competition
Type: binding

[1] = read-out: Potency Class A3AR; [125I]-AB-MECA 0.15 nM, r.t., 120 min; IC50 from dose-response curves
[2] = [125I]-AB-MECA 0.15 nM, r.t., 120 min; IC50 from dose-response curves; read-out: Potency Class A3AR

| Structure (SMILES) | IC50 [2] | IC50 [1] |
| --- | --- | --- |
| CCC(CC)Nc1cc(NC(=O)Cc2cccnc2)c2nnc(C(C)C)n2n1 [compound 168, N-[6-(1-ethylpropylamino)-3-isopropyl-[1.2.4]triazolo[4,3-b]pyridazin-8-yl]-2-(3-pyridyl)acetamide] |  | < 1 nM |
| CC[C@H](CO)Nc1cc(NCc2ccccn2)c2nnc(C(C)C)n2n1 [compound 169] |  | 10 to 100 nM |
| CCC(CC)Nc1cc(Nc2ncccn2)c2nnc(C3CC3)n2n1 [compound 179, 3-cyclopropyl-N6-(pentan-3-yl)-N8-(pyrimidin-2-yl)-[1,2,4]triazolo[4,3-b]pyridazine-6,8-diamine] | 10 to 100 nM |  |
| CCC(CC)Nc1cc(Nc2cccnc2OC)c2nnc(C3CC3)n2n1 [compound 184, 3-cyclopropyl-N8-(2-methoxypyridin-3-yl)-N6-(pentan-3-yl)-[1,2,4]triazolo[4,3-b]pyridazine-6,8-diamine] | 10 to 100 nM |  |
| CC[C@H](CO)Nc1cc(NCCc2ccccn2)c2nnc(C3CC3)n2n1 [compound 185, (2R)-2-[[3-cyclopropyl-8-[2-(2-pyridyl)ethylamino]-[1,2,4]triazolo[4,3-b]pyridazin-6-yl]amino]butan-1-ol] | 10 to 100 nM |  |
| COc1ccc(CN(C)c2cc(NCc3ccccn3)c3nnc(C4CC4)n3n2)cc1 [compound 188, 3-cyclopropyl-N6-(4-methoxybenzyl)-N6-methyl-N8-(pyridin-2-ylmethyl)-[1,2,4]triazolo[4,3-b]pyridazine-6,8-diamine] | 100 to 1000 nM |  |
| CCNc1cc(NCc2ccccn2)c2nnc(C3CC3)n2n1 [compound 189, 3-cyclopropyl-N6-ethyl-N8-(2-pyridylmethyl)-[1,2,4]triazolo[4,3-b]pyridazine-6,8-diamine] | 10 to 100 nM |  |
| CCCNc1cc(NCc2ccccn2)c2nnc(C3CC3)n2n1 [compound 190, 3-cyclopropyl-N6-propyl-N8-(pyridin-2-ylmethyl)-[1,2,4]triazolo[4,3-b]pyridazine-6,8-diamine] | 10 to 100 nM |  |
| CC(C)CNc1cc(NCc2ccccn2)c2nnc(C3CC3)n2n1 [compound 194, 3-cyclopropyl-N6-isobutyl-N8-(pyridin-2-ylmethyl)-[1,2,4]triazolo[4,3-b]pyridazine-6,8-diamine] | 10 to 100 nM |  |
| CC(C)(C)Nc1cc(NCc2ccccn2)c2nnc(C3CC3)n2n1 [compound 195, N6-(tert-butyl)-3-cyclopropyl-N8-(pyridin-2-ylmethyl)-[1,2,4]triazolo[4,3-b]pyridazine-6,8-diamine] | 1 to 10 nM |  |
| CCC(CC)CNc1cc(NCc2ccccn2)c2nnc(C3CC3)n2n1 [compound 196, 3-cyclopropyl-N6-(2-ethylbutyl)-N8-(pyridin-2-ylmethyl)-[1,2,4]triazolo[4,3-b]pyridazine-6,8-diamine] | 1 to 10 nM |  |
| c1ccc(CNc2cc(NC3CC3)nn3c(C4CC4)nnc23)nc1 [compound 197, N6,3-dicyclopropyl-N8-(pyridin-2-ylmethyl)-[1,2,4]triazolo[4,3-b]pyridazine-6,8-diamine] | 10 to 100 nM |  |
| c1ccc(CNc2cc(NC3CCC3)nn3c(C4CC4)nnc23)nc1 [compound 198, N6-cyclobutyl-3-cyclopropyl-N8-(pyridin-2-ylmethyl)-[1,2,4]triazolo[4,3-b]pyridazine-6,8-diamine] | 1 to 10 nM |  |
| c1ccc(CNc2cc(NC3CCCC3)nn3c(C4CC4)nnc23)nc1 [compound 199, N6-cyclopentyl-3-cyclopropyl-N8-(pyridin-2-ylmethyl)-[1,2,4]triazolo[4,3-b]pyridazine-6,8-diamine] | 1 to 10 nM |  |
| c1ccc(CNc2cc(NC3CCCCC3)nn3c(C4CC4)nnc23)nc1 [compound 200, N6-cyclohexyl-3-cyclopropyl-N8-(pyridin-2-ylmethyl)-[1,2,4]triazolo[4,3-b]pyridazine-6,8-diamine] | 1 to 10 nM |  |
| c1ccc(CNc2cc(NC3CCCCCC3)nn3c(C4CC4)nnc23)nc1 [compound 201, N6-cycloheptyl-3-cyclopropyl-N8-(pyridin-2-ylmethyl)-[1,2,4]triazolo[4,3-b]pyridazine-6,8-diamine] | 1 to 10 nM |  |
| c1ccc(CNc2cc(NC34CC5CC(CC(C5)C3)C4)nn3c(C4CC4)nnc23)nc1 [compound 202, N6-((3s,5s,7s)-adamantan-1-yl)-3-cyclopropyl-N8-(pyridin-2-ylmethyl)-[1,2,4]triazolo[4,3-b]pyridazine-6,8-diamine] | 1 to 10 nM |  |
| c1ccc(CNc2cc(NCC3CC3)nn3c(C4CC4)nnc23)nc1 [compound 203, 3-cyclopropyl-N6-(cyclopropylmethyl)-N8-(pyridin-2-ylmethyl)-[1,2,4]triazolo[4,3-b]pyridazine-6,8-diamine] | 10 to 100 nM |  |
| c1ccc(CNc2cc(NCC3CCC3)nn3c(C4CC4)nnc23)nc1 [compound 204, N6-(cyclobutylmethyl)-3-cyclopropyl-N8-(pyridin-2-ylmethyl)-[1,2,4]triazolo[4,3-b]pyridazine-6,8-diamine] | 1 to 10 nM |  |
| c1ccc(CNc2cc(NC3CC4(CCC4)C3)nn3c(C4CC4)nnc23)nc1 [compound 205, 3-cyclopropyl-N8-(pyridin-2-ylmethyl)-N6-(spiro[3.3]heptan-2-yl)-[1,2,4]triazolo[4,3-b]pyridazine-6,8-diamine] | 1 to 10 nM |  |
| CC1(CNc2cc(NCc3ccccn3)c3nnc(C4CC4)n3n2)CCC1 [compound 206, 3-cyclopropyl-N6-((1-methylcyclobutyl)methyl)-N8-(pyridin-2-ylmethyl)-[1,2,4]triazolo[4,3-b]pyridazine-6,8-diamine] | 1 to 10 nM |  |

The next lines start with results.

| IC50 [2] | Structure (SMILES) | IC50 [1] |
| --- | --- | --- |
| 1 to 10 nM | CCC(CC)Nc1cc(NCCCc2ccccc2)c2nnc(C(C)C)n2n1 [compound 170, N6-(1-ethylpropyl)-3-isopropyl-N8-(3-phenylpropyl)-[1,2,4]triazolo[4,3-b]pyridazine-6,8-diamine] |  |
| < 1 nM | CCC(CC)Nc1cc(Nc2ccccc2)c2nnc(C3CC3)n2n1 [compound 171, 3-cyclopropyl-N6-(1-ethylpropyl)-N8-phenyl-[1,2,4]triazolo[4,3-b]pyridazine-6,8-diamine] |  |
| < 1 nM | CCC(CC)Nc1cc(Nc2ccccn2)c2nnc(C3CC3)n2n1 [compound 172, 3-cyclopropyl-N6-(1-ethylpropyl)-N8-(2-pyridyl)-[1,2,4]triazolo[4,3-b]pyridazine-6,8-diamine] |  |
| < 1 nM | CCC(CC)Nc1cc(Nc2cccnc2)c2nnc(C3CC3)n2n1 [compound 173, 3-cyclopropyl-N6-(1-ethylpropyl)-N8-(3-pyridyl)-[1,2,4]triazolo[4,3-b]pyridazine-6,8-diamine] |  |
| < 1 nM | CCC(CC)Nc1cc(Nc2ccncc2)c2nnc(C3CC3)n2n1 [compound 174, 3-cyclopropyl-N6-(1-ethylpropyl)-N8-(4-pyridyl)-[1,2,4]triazolo[4,3-b]pyridazine-6,8-diamine] |  |
| 1 to 10 nM | CCC(CC)Nc1cc(Nc2ccnnc2)c2nnc(C3CC3)n2n1 [compound 176, 3-cyclopropyl-N6-(pentan-3-yl)-N8-(pyridazin-4-yl)-[1,2,4]triazolo[4,3-b]pyridazine-6,8-diamine] |  |
| < 1 nM | CCC(CC)Nc1cc(Nc2ccncn2)c2nnc(C3CC3)n2n1 [compound 177, 3-cyclopropyl-N6-(pentan-3-yl)-N8-(pyrimidin-4-yl)-[1,2,4]triazolo[4,3-b]pyridazine-6,8-diamine] |  |
| < 1 nM | CCC(CC)Nc1cc(Nc2cncnc2)c2nnc(C3CC3)n2n1 [compound 178, 3-cyclopropyl-N6-(1-ethylpropyl)-N8-pyrimidin-5-yl-[1,2,4]triazolo[4,3-b]pyridazine-6,8-diamine] |  |
| < 1 nM | CCC(CC)Nc1cc(Nc2cnccn2)c2nnc(C3CC3)n2n1 [compound 180, 3-cyclopropyl-N6-(pentan-3-yl)-N8-(pyrazin-2-yl)-[1,2,4]triazolo[4,3-b]pyridazine-6,8-diamine] |  |
| < 1 nM | CC[C@H](CO)Nc1cc(Nc2cccnn2)c2nnc(C3CC3)n2n1 [compound 181, (R)-2-((3-cyclopropyl-8-(pyridazin-3-ylamino)-[1,2,4]triazolo[4,3-b]pyridazin-6-yl)amino)butan-1-ol] |  |
| < 1 nM | CC[C@@H](CO)Nc1cc(Nc2cccnn2)c2nnc(C3CC3)n2n1 [compound 182, (S)-2-((3-cyclopropyl-8-(pyridazin-3-ylamino)-[1,2,4]triazolo[4,3-b]pyridazin-6-yl)amino)butan-1-ol] |  |
| < 1 nM | CCC(CC)Nc1cc(Nc2cccc(OC)n2)c2nnc(C3CC3)n2n1 [compound 183, 3-cyclopropyl-N8-(6-methoxypyridin-2-yl)-N6-(pentan-3-yl)-[1,2,4]triazolo[4,3-b]pyridazine-6,8-diamine] |  |
| 1 to 10 nM | c1ccc(CNc2cc(NCc3ccccn3)c3nnc(C4CC4)n3n2)cc1 [compound 186, N6-benzyl-3-cyclopropyl-N8-(pyridin-2-ylmethyl)-[1,2,4]triazolo[4,3-b]pyridazine-6,8-diamine] |  |
| 1 to 10 nM | COc1ccc(CNc2cc(NCc3ccccn3)c3nnc(C4CC4)n3n2)cc1 [compound 187, 3-cyclopropyl-N6-(4-methoxybenzyl)-N8-(pyridin-2-ylmethyl)-[1,2,4]triazolo[4,3-b]pyridazine-6,8-diamine] |  |
| 1 to 10 nM | CCCCNc1cc(NCc2ccccn2)c2nnc(C3CC3)n2n1 [compound 191, N6-butyl-3-cyclopropyl-N8-(pyridin-2-ylmethyl)-[1,2,4]triazolo[4,3-b]pyridazine-6,8-diamine] |  |
| 1 to 10 nM | CC(C)Nc1cc(NCc2ccccn2)c2nnc(C3CC3)n2n1 [compound 192, 3-cyclopropyl-N6-isopropyl-N8-(pyridin-2-ylmethyl)-[1,2,4]triazolo[4,3-b]pyridazine-6,8-diamine] |  |
